# According to patent EP0720988A1, “Pseudopeptides containing trifluoromethyl substituted 2-azabicyclooctane” (BAYER AG, priority 1995, dated 1996):
# Where a name gives a salt, the structure may show the parent alone. Read-outs that look alike come from different tables or passages of the source.
# Experiments:
# [1] = target: T1, HIV-1-Protease (Human immunodeficiency virus type 1 group M subtype B, UniProt P04585); experiment: HIV-specific protease enzyme assay (purified HIV protease, synthetic peptide substrate, RP-HPLC analysis of cleavage products); format: biochemical; conditions: synthetic peptide imitating a Gag precursor cleavage site, 50% inhibition of protease activity
# T1 construct: Gereinigte HIV-Protease wurde mit synthetischem Peptid
# Text: Es wurde überraschend gefunden, daß die Verbindungen der allgemeinen Formel (I) eine außerordentlich starke Wirkung gegen Retroviren besitzen. Dies wird mit einem HIV-spezifischen Protease-Enzymtest belegt.
# Die Ergebnisse der unten aufgeführten Beispiele wurden nach dem in den folgenden Literaturangaben [vgl. Hansen, J., Billich, S., Schulze, T., Sukrow, S. and Mölling, K. (1988), EMBO Journal, Vol, 7, No. 6, pp. 1785 - 1791] beschriebenen HIV-Testsystem ermittelt: Gereinigte HIV-Protease wurde mit synthetischem Peptid, das eine Schnittstelle im Gag-Precursor-Protein imitiert und eine in vivo-Spaltstelle der HIV-Protease darstellt, inkubiert. Die entstandenen Spaltprodukte des synthetischen Peptids wurden über Reverse Phase High Performance Liquid Chromatography (RP-HPLC) analysiert. Die angegebenen IC50-Werte beziehen sich auf die Substanzkonzentration, die unter den oben aufgeführten Testbedingungen eine 50%ige Hemmung der Protease-Aktivität bewirkt.
# [2] = system: HIV; experiment: HIV infection in cell culture (PBL), suppression of virus-induced syncytia formation; format: cell-based; conditions: 50% suppression of virus-induced syncytia, read between day 3 and 6 after infection
# Description: HIV-Infektion in Zellkultur
# Der HIV-Test wurde mit geringen Modifikationen nach der Methode von Pauwels et al. [vgl. Journal of Virological Methods 20, (1988), 309-321] durchgeführt.
# Normale menschliche Blutlymphozyten (PBL's) wurden über Ficoll-Hypaque angereichert und im RPMI 1640, 20% fötales Kälberserum mit Phytohaemagglutinin (90 µg/ml) und Interleukin-2 (40 U/ml) stimuliert. Zur Infektion mit dem in-fektiösen HIV wurden PBL's pelletiert und das Zellpellet wurde anschließend in 1 ml HIV-Virusadsorptionslösung suspendiert und 1 Stunde bei 37°C inkubiert.
# Die Virusadsorptionslösung wurde zentrifugiert und das infizierte Zellpellet in Wachstumsmedium aufgenommen, so daß 1 x 10^5 Zellen pro ml eingestellt waren. Die derart infizierten Zellen wurden zu 1 x 10^4 Zellen/Napf in die Näpfe von 96er Mikrotiterplatten pipettiert.
# Die erste vertikale Reihe der Mikrotiterplatte enthielt nur Wachstumsmedium und Zellen, die nicht infiziert, aber ansonsten genauso wie oben beschrieben, behandelt worden waren (Zellkontrolle). Die zweite vertikale Reihe der Mikrotiterplatte erhielt nur HIV-infizierte Zellen (Viruskontrolle) in Wachstumsmedium. Die übrigen Näpfe enthielten die erfindungsgemäßen Verbindungen in unterschiedlichen Konzentrationen, ausgehend von den Näpfen der 3. vertikalen Reihe der Mikrotiterplatte, von der die Prüfsubstanzen in 2er Schritten 2^10fach verdünnt wurden.
# Die Testansätze wurden so lange bei 37°C inkubiert, bis in der unbehandelten Viruskontrolle die für das HIV typische Syncytienbildung auftrat (zwischen Tag 3 und 6 nach Infektion), die dann mikroskopisch ausgewertet wurde. In der unbehandelten Viruskontrolle resultierten unter diesen Testbedingungen etwa 20 Syncytien, währen die unbehandelte Zellkontrolle keine Syncytien aufwies.
# Die IC50-Werte wurden als die Konzentration der behandelten und infizierten Zellen ermittelt, bei der 50% (ca. 10 Syncytien) der virusinduzierten Syncytien durch die Behandlung mit der erfindungsgemäßen Verbindung unterdrückt waren.
# [3] = target: T1, HIV-1-Protease; experiment: HIV-specific protease enzyme assay (purified HIV protease, synthetic peptide substrate, RP-HPLC analysis of cleavage products); format: biochemical; conditions: synthetic peptide imitating a Gag precursor cleavage site
# [4] = HIV-1-Protease-Inhibition IC50, purified HIV protease
# [5] = read-out: PBL IC50, HIV-infected normal human blood lymphocytes (PBL's)
# [6] = Human immunodeficiency virus 1, Lymphocyte, 72 h, read-out: PBL IC50, HIV-infected normal human blood lymphocytes (PBL's)
# [7] = purified HIV protease, read-out: HIV-1-Protease-Inhibition IC50
SMILES,HIV-1-Protease-Inhibition IC95 [3],other results
NC(=O)C[C@H](NC(=O)c1cnc2ccccc2n1)C(=O)N[C@@H](Cc1ccccc1)[C@H](O)CN1[C@H](C(F)(F)F)C[C@@H]2CCC[C@@H]21 [Beispiel 1],"1,9 x 10^-10 Mol/l","IC50 [1, 4]: 0.018 nM; IC50 [2, 5]: 81.7 nM"
NC(=O)C[C@H](NC(=O)c1cnc2ccccc2n1)C(=O)N[C@@H](Cc1ccccc1)[C@H](O)CN1[C@H](C(F)(F)F)C[C@@H]2CCC[C@@H]21 [Beispiel 2],"3,6 x 10^-11 Mol/l","IC50 ([1]; read-out: HIV-1-Protease-Inhibition IC50, purified HIV protease): 0.017 nM; IC50 [2, 5]: 38.5 nM"
"NC(=O)C[C@H](NC(=O)c1ccc2ccccc2n1)C(=O)N[C@@H](Cc1ccccc1)[C@H](O)CN1[C@H](C(F)(F)F)C[C@@H]2CCC[C@@H]21 [Beispiel 3, (2R,3S)-3-(Chinolin-2-yl-L-asparaginyl)-amino-1-[(S,S,S)-3-trifluormethyl-2-azabicyclo[3.3.0]octan-2-yl}-2-hydroxy-4-phenyl-butan]","2,2 x 10^-8 Mol/l","IC50 [1, 4]: 0.24 nM; IC50 [2, 6]: 35 nM"
"NC(=O)C[C@H](NC(=O)c1ccc2ccccc2n1)C(=O)N[C@@H](Cc1ccccc1)[C@H](O)CN1[C@H](C(F)(F)F)C[C@@H]2CCC[C@@H]21 [Beispiel 4, (2R,3S)-3-(Chinolin-2-yl-L-asparaginyl)-amino-1-[(S,S,S)-3-trifluormethyl-2-azabicylco[3.3.0]octan-2-yl}-2-hydroxy-4-phenyl-butan Hydrochlorid]","3,3 x 10^-8 Mol/l","IC50 [1, 4]: 0.6 nM; IC50 [2, 5]: 22.5 nM"
Cc1cc2ncc(C(=O)N[C@@H](CC(N)=O)C(=O)N[C@@H](Cc3ccccc3)[C@H](O)CN3[C@H](C(F)(F)F)C[C@@H]4CCC[C@@H]43)nc2cc1C [Beispiel 8],"3,2 x 10^-6 Mol/l",–
Cc1cc2ncc(C(=O)N[C@@H](CC(N)=O)C(=O)N[C@@H](Cc3ccccc3)[C@H](O)CN3[C@H](C(F)(F)F)C[C@@H]4CCC[C@@H]43)nc2cc1C [Beispiel 9],"2,6 x 10^-9 Mol/l",–
Cc1ccc2nc(C(=O)N[C@@H](CC(N)=O)C(=O)N[C@@H](Cc3ccccc3)[C@H](O)CN3[C@H](C(F)(F)F)C[C@@H]4CCC[C@@H]43)ccc2c1 [Beispiel 10],"3,1 x 10^-7 Mol/l",–
Cc1ccc2nc(C(=O)N[C@@H](CC(N)=O)C(=O)N[C@@H](Cc3ccccc3)[C@H](O)CN3[C@H](C(F)(F)F)C[C@@H]4CCC[C@@H]43)ccc2c1 [Beispiel 11],"3,6 x 10^-11 Mol/l",–
NC(=O)C[C@H](NC(=O)c1ccc2cc(Cl)ccc2n1)C(=O)N[C@@H](Cc1ccccc1)[C@H](O)CN1[C@H](C(F)(F)F)C[C@@H]2CCC[C@@H]21 [Beispiel 12],"3,7 x 10^-9 Mol/l",–
NC(=O)C[C@H](NC(=O)c1ccc2cc(Cl)ccc2n1)C(=O)N[C@@H](Cc1ccccc1)[C@H](O)CN1[C@H](C(F)(F)F)C[C@@H]2CCC[C@@H]21 [Beispiel 13],"2,5 x 10^-10 Mol/l",–
NC(=O)C[C@H](NC(=O)COc1ccccc1-c1ccccc1)C(=O)N[C@@H](Cc1ccccc1)[C@H](O)CN1[C@H](C(F)(F)F)C[C@@H]2CCC[C@@H]21 [Beispiel 14],"1,8 x 10^-7 Mol/l","IC50 [1, 7]: 3.5 nM; IC50 [2, 6]: 600 nM"
NC(=O)C[C@H](NC(=O)COc1ccccc1-c1ccccc1)C(=O)N[C@@H](Cc1ccccc1)[C@H](O)CN1[C@H](C(F)(F)F)C[C@@H]2CCC[C@@H]21 [Beispiel 15],"2,9 x 10^-8 Mol/l","IC50 [1, 7]: 2.2 nM"
Cc1c(O)cccc1C(=O)N[C@@H](CC(N)=O)C(=O)N[C@@H](Cc1ccccc1)[C@H](O)CN1[C@H](C(F)(F)F)C[C@@H]2CCC[C@@H]21 [Beispiel 16],"2,7 x 10^-6 Mol/l","IC50 [1, 7]: 200 nM"
Cc1cnc(C)c(COC(=O)N[C@@H](CC(N)=O)C(=O)N[C@@H](Cc2ccccc2)[C@H](O)CN2[C@H](C(F)(F)F)C[C@@H]3CCC[C@@H]32)c1 [Beispiel 17],"3,7 x 10^-5 Mol/l","IC50 [1, 7]: 1900 nM"
